Columns and labels:
OVCAR-8 = test: NCI-60 antiproliferative screen (SRB); assay type: cell-based, human; settings: Homo sapiens; 10 µM single dose, 48 h; OVCAR-8 (Ovarian); read-out: Growth inhibition (%)
NCI/ADR-RES = test: NCI-60 antiproliferative screen (SRB); assay type: cell-based, human; settings: Homo sapiens; 10 µM single dose, 48 h; NCI/ADR-RES (Ovarian); read-out: Growth inhibition (%)
NCI-H460 = test: NCI-60 antiproliferative screen (SRB); assay type: cell-based, human; settings: Homo sapiens; 10 µM single dose, 48 h; NCI-H460 (NSCLC); read-out: Growth inhibition (%)
HCT-116 = test: NCI-60 antiproliferative screen (SRB); assay type: cell-based, human; settings: Homo sapiens; 10 µM single dose, 48 h; HCT-116 (Colon); read-out: Growth inhibition (%)
DU-145 = test: NCI-60 antiproliferative screen (SRB); assay type: cell-based, human; settings: Homo sapiens; 10 µM single dose, 48 h; DU-145 (Prostate); read-out: Growth inhibition (%)
U251 = test: NCI-60 antiproliferative screen (SRB); assay type: cell-based, human; settings: Homo sapiens, U-251; 10 µM single dose, 48 h; U251 (CNS); read-out: Growth inhibition (%)
MDA-MB-468 = test: NCI-60 antiproliferative screen (SRB); assay type: cell-based, human; settings: Homo sapiens; 10 µM single dose, 48 h; MDA-MB-468 (Breast); read-out: Growth inhibition (%)
TK-10 = test: NCI-60 antiproliferative screen (SRB); assay type: cell-based, human; settings: Homo sapiens; 10 µM single dose, 48 h; TK-10 (Renal); read-out: Growth inhibition (%)
RXF 393 = test: NCI-60 antiproliferative screen (SRB); assay type: cell-based, human; settings: Homo sapiens; 10 µM single dose, 48 h; RXF 393 (Renal); read-out: Growth inhibition (%)
OVCAR-4 = test: NCI-60 antiproliferative screen (SRB); settings: Homo sapiens, OVCAR-4, 48 h, read-out: Growth inhibition (%)
Protocol: Anticancer activity was tested against 60 cancer cell lines (NCI-60) after 48h treatments with a single dosage of 10 μM of compounds by using sulforhodamine B assay [39] on the traditional 96-well platform. […] The human cancer cell lines of the NCI-60 panel are grown in RPMI 1640 medium supplemented with 5% FBS (fetal bovine serum) and 2 mM L-glutamine. […] For further analysis of promising compounds, five dose screens were performed against the NCI-60 panel. Drug treatments are performed in 5 doses using 10-fold or ½ log dose dilutions.

SF-295 = test: NCI-60 antiproliferative screen (SRB); assay type: cell-based, human; settings: Homo sapiens; 10 µM single dose, 48 h; SF-295 (CNS); read-out: Growth inhibition (%)
MCF7 = test: NCI-60 antiproliferative screen (SRB); assay type: cell-based, human; settings: Homo sapiens; 10 µM single dose, 48 h; MCF7 (Breast); read-out: Growth inhibition (%)
OVCAR-5 = test: NCI-60 antiproliferative screen (SRB); assay type: cell-based, human; settings: Homo sapiens; 10 µM single dose, 48 h; OVCAR-5 (Ovarian); read-out: Growth inhibition (%)
ACHN = test: NCI-60 antiproliferative screen (SRB); assay type: cell-based, human; settings: Homo sapiens; 10 µM single dose, 48 h; ACHN (Renal); read-out: Growth inhibition (%)
PC-3 = test: NCI-60 antiproliferative screen (SRB); assay type: cell-based, human; settings: Homo sapiens; 10 µM single dose, 48 h; PC-3 (Prostate); read-out: Growth inhibition (%)
HS 578T = test: NCI-60 antiproliferative screen (SRB); assay type: cell-based, human; settings: Homo sapiens; 10 µM single dose, 48 h; HS 578T (Breast); read-out: Growth inhibition (%)
K-562 = test: NCI-60 antiproliferative screen (SRB); assay type: cell-based, human; settings: Homo sapiens, K562; 10 µM single dose, 48 h; K-562 (Leukemia); read-out: Growth inhibition (%)
786-0 = test: NCI-60 antiproliferative screen (SRB); assay type: cell-based, human; settings: Homo sapiens; 10 µM single dose, 48 h; 786-0 (Renal); read-out: Growth inhibition (%)
UACC-257 = test: NCI-60 antiproliferative screen (SRB); assay type: cell-based, human; settings: Homo sapiens; 10 µM single dose, 48 h; UACC-257 (Melanoma); read-out: Growth inhibition (%)
RPMI-8226 = test: NCI-60 antiproliferative screen (SRB); assay type: cell-based, human; settings: Homo sapiens; 10 µM single dose, 48 h; RPMI-8226 (Leukemia); read-out: Growth inhibition (%)
SK-MEL-28 = test: NCI-60 antiproliferative screen (SRB); assay type: cell-based, human; settings: Homo sapiens; 10 µM single dose, 48 h; SK-MEL-28 (Melanoma); read-out: Growth inhibition (%)
A549/ATCC = test: NCI-60 antiproliferative screen (SRB); assay type: cell-based, human; settings: Homo sapiens; 10 µM single dose, 48 h; A549/ATCC (NSCLC); read-out: Growth inhibition (%)
MDA-MB-231 = test: NCI-60 antiproliferative screen (SRB); assay type: cell-based, human; settings: Homo sapiens; 10 µM single dose, 48 h; MDA-MB-231 (Breast); read-out: Growth inhibition (%)
A498 = test: NCI-60 antiproliferative screen (SRB); assay type: cell-based, human; settings: Homo sapiens; 10 µM single dose, 48 h; A498 (Renal); read-out: Growth inhibition (%)
SK-MEL-2 = test: NCI-60 antiproliferative screen (SRB); assay type: cell-based, human; settings: Homo sapiens; 10 µM single dose, 48 h; SK-MEL-2 (Melanoma); read-out: Growth inhibition (%)
HOP-92 = test: NCI-60 antiproliferative screen (SRB); assay type: cell-based, human; settings: Homo sapiens; 10 µM single dose, 48 h; HOP-92 (NSCLC); read-out: Growth inhibition (%)
CCRF-CEM = test: NCI-60 antiproliferative screen (SRB); assay type: cell-based, human; settings: Homo sapiens; 10 µM single dose, 48 h; CCRF-CEM (Leukemia); read-out: Growth inhibition (%)
SF-268 = test: NCI-60 antiproliferative screen (SRB); assay type: cell-based, human; settings: Homo sapiens; 10 µM single dose, 48 h; SF-268 (CNS); read-out: Growth inhibition (%)
BT-549 = test: NCI-60 antiproliferative screen (SRB); assay type: cell-based, human; settings: Homo sapiens; 10 µM single dose, 48 h; BT-549 (Breast); read-out: Growth inhibition (%)

| SMILES | inhibition at 10 µM (OVCAR-8) | inhibition at 10 µM (NCI/ADR-RES) | inhibition at 10 µM (NCI-H460) | inhibition at 10 µM (HCT-116) | inhibition at 10 µM (DU-145) | inhibition at 10 µM (U251) | inhibition at 10 µM (MDA-MB-468) | inhibition at 10 µM (TK-10) | inhibition at 10 µM (RXF 393) | melting point | inhibition at 10 µM (OVCAR-4) | inhibition at 10 µM (SF-295) | inhibition at 10 µM (MCF7) | inhibition at 10 µM (OVCAR-5) | inhibition at 10 µM (ACHN) | inhibition at 10 µM (PC-3) | inhibition at 10 µM (HS 578T) | inhibition at 10 µM (K-562) | inhibition at 10 µM (786-0) | inhibition at 10 µM (UACC-257) | further results |
| --- | --- | --- | --- | --- | --- | --- | --- | --- | --- | --- | --- | --- | --- | --- | --- | --- | --- | --- | --- | --- | --- |
| O=C1Nc2cc(Cl)ccc2C1=Cc1ccc(OCc2ccccc2)cc1 (mixture of isomers) [Compound 5d, (E/Z)-3-[4-(Benzyloxy)benzylidene]-6-chloroindolin-2-one] | -0.41% | -4.24% | -4.48% | 2.33% | -1.25% | -4.25% | 1.52% | -54% | -14.2% | 259 to 261 °C | 3.65% | -14.7% | 38.4% | -0.55% | 5.18% | 11.8% | 3.27% | 6.91% | -4.97% | -16.1% | inhibition at 10 µM (RPMI-8226): -7.36%; inhibition at 10 µM (SK-MEL-28): -2.97%; inhibition at 10 µM (A549/ATCC): -4.59%; inhibition at 10 µM (MDA-MB-231): -3.65%; inhibition at 10 µM (A498): 6.98%; inhibition at 10 µM (SK-MEL-2): -11.3%; inhibition at 10 µM (HOP-92): -8.67%; inhibition at 10 µM (CCRF-CEM): -2.18%; inhibition at 10 µM (SF-268): 5.55%; inhibition at 10 µM (BT-549): -1.23% |
| O=C1Nc2ccc(F)cc2C1=Cc1ccc(OCc2ccccn2)cc1 (mixture of isomers) [Compound 5f, (E/Z)-5-fluoro-3-[4-(pyridin-2-ylmethoxy)benzylidene]indolin-2-one] | 3.52% | 21.7% | 11.6% | 57.8% | 7.73% | 41.8% | 28.2% | 4.47% | 24.2% | 226 to 228 °C | 5.38% | 1.98% | 37.8% | -9.45% | 23.8% | 8.7% | 21.9% | 14.6% | 16.6% | -4.06% | inhibition at 10 µM (RPMI-8226): 19.4%; inhibition at 10 µM (SK-MEL-28): -8.53%; inhibition at 10 µM (A549/ATCC): -1.04%; inhibition at 10 µM (MDA-MB-231): 14.9%; inhibition at 10 µM (A498): 32.5%; inhibition at 10 µM (SK-MEL-2): -3.45%; inhibition at 10 µM (HOP-92): 32.9%; inhibition at 10 µM (CCRF-CEM): 5.79%; inhibition at 10 µM (SF-268): 29.9%; inhibition at 10 µM (BT-549): 13.2% |
| O=C1Nc2ccc(F)cc2C1=Cc1ccc(OCc2cccnc2)cc1 (mixture of isomers) [Compound 5j, (E/Z)-5-Fluoro-3-[4-(pyridin-3-ylmethoxy)benzylidene]indolin-2-one] | 65.1% | 85.6% | 53.9% | 84.7% | 46.1% | 83.7% | 58.5% | -1.92% | 37.3% | 187 to 189 °C | 47.2% | 54.8% | 91% | -11.2% | 51.8% | 43.6% | 37.4% | 86.1% | 24.2% | 39.8% | inhibition at 10 µM (RPMI-8226): 61.2%; inhibition at 10 µM (SK-MEL-28): 28.2%; inhibition at 10 µM (A549/ATCC): 39.4%; inhibition at 10 µM (MDA-MB-231): 42%; inhibition at 10 µM (A498): -29.1%; inhibition at 10 µM (SK-MEL-2): 50.4%; inhibition at 10 µM (HOP-92): 25.8%; inhibition at 10 µM (CCRF-CEM): 75%; inhibition at 10 µM (SF-268): 11.1%; inhibition at 10 µM (BT-549): 65.7% |
| O=C1Nc2ccc(Cl)cc2C1=Cc1ccc(OCc2cccnc2)cc1 (mixture of isomers) [Compound 5k, (E/Z)-5-Chloro-3-[4-(pyridin-3-ylmethoxy)benzylidene] indolin-2-one] | 23.4% | 26% | 14.3% | 34.6% | 0.75% | 27.3% | 12.5% | -37.8% | 6.84% | 199 to 201 °C | 21.2% | 4.51% | 55.5% | -34.5% | 16.4% | 24.3% | 3.67% | 38.8% | 1.47% | 2.42% | inhibition at 10 µM (RPMI-8226): 29.7%; inhibition at 10 µM (SK-MEL-28): -20.5%; inhibition at 10 µM (A549/ATCC): 16.1%; inhibition at 10 µM (MDA-MB-231): 9.08%; inhibition at 10 µM (A498): -31.6%; inhibition at 10 µM (SK-MEL-2): 0.36%; inhibition at 10 µM (HOP-92): -1.4%; inhibition at 10 µM (CCRF-CEM): 36.4%; inhibition at 10 µM (SF-268): 5.1%; inhibition at 10 µM (BT-549): 14.5% |

From article PMC11124822, “Discovery and Anticancer Screening of Novel Oxindole-Based Derivative Bearing Pyridyl Group as Potent and Selective Dual FLT3/CDK2 Kinase Inhibitor” (Pharmaceuticals, 2024)
